Earlier results, collected in patent US6440956B1, “Bicyclic polyaminoacid metal complexes, their process of preparation and their application in medical imaging” (Guerbet, priority 1999, dated 2002).

Conditions: ratio to commercial gadolinium chelates; from Inorganic Chemistry 36(14) 2992-3000 (1997) and Magn. Reson. Chem. 36, S200-208 (1998)

For `O=C([O-])CN1CCN(CC(=O)[O-])Cc2cccc(n2)CN(CC(=O)[O-])CC1.[Gd+3]` [PCTA], the “longitudinal relaxation r1 relative to that of the gadolinium chelates used as contrast agents in magnetic resonance imaging in man” value is listed as ~2 times.
